From patent US10752587B2, “Homobispiperidinyl derivatives as liver X receptor beta agonists, compositions and their use” (Merck Sharp & Dohme Corp., priority 2015, dated 2020) come the findings set out here.

Assay [1] concerns the target T1, glutathione-S-transferase (GST) tagged LXRalpha LBD (ligand binding domain) (Homo sapiens, UniProt Q13133).
T1 construct: purchased Invitrogen pv4655
T1 sequence (Q13133 209-447 limits assumed): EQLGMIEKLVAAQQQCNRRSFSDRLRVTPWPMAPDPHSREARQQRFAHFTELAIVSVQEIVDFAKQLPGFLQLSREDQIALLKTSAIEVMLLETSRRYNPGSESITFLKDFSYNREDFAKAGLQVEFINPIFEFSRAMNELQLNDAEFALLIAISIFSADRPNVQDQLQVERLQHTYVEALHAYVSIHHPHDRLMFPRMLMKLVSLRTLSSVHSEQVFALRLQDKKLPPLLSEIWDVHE
The assay can be described thus: LanthaScreen TR-FRET Liver X Receptor Coactivator Assay, co-activator recruitment to LXRalpha LBD. The assay is classed as biochemical. Conditions: for Emax: efficacy at max dose, in relation to reference dual agonist T0901317, read-out: LXR alpha Activity @ max dose (%); for LXR alpha IP (nM) / EC50: potency (Inflection Point, IP), co-activator recruitment to LXRalpha LBD, in relation to T0901317; for EC50: read-out: LXR alpha IP. In a few lines: (§1)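 Compound-induced coactivator recruitment by the GST-fused ligand binding domain, detected as TR-FRET between Tb-labelled anti-GST antibody and fluorescein-tagged coactivator peptide after room-temperature incubation. IP and Emax expressed versus T0901317 as reference agonist.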
In general terms: TR-FRET usually uses a lanthanide donor and a delayed reading to cut background.

In assay [2] the target is T2, glutathione-S-transferase (GST) tagged LXRbeta LBD (ligand binding domain) (Homo sapiens, UniProt P55055).
T2 construct: purchased Invitrogen pv4658.pps
T2 sequence (P55055 222-460 limits assumed): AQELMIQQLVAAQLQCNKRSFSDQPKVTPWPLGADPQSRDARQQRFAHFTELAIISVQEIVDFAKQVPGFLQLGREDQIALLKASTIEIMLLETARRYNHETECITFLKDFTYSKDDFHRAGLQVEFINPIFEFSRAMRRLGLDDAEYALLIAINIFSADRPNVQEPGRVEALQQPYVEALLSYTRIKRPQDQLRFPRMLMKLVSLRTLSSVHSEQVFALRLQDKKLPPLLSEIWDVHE
The assay is described as follows: LanthaScreen TR-FRET Liver X Receptor Coactivator Assay, co-activator recruitment to LXRbeta LBD. The class given is biochemical. Conditions: for Emax: efficacy at max dose, in relation to reference dual agonist T0901317, read-out: LXR beta Activity @ max dose (%); for EC50: potency (Inflection Point, IP), co-activator recruitment to LXRbeta LBD, in relation to T0901317, read-out: LXR beta IP. The method, boiled down: as §1

SMILES strings stand for the structures.

Consider `CN(C)C(=O)c1ccc(N2CCC(CC3CCN(C(=O)[C@](O)(c4cccc(OC(F)(F)F)c4)C(F)(F)F)CC3)CC2)nc1Cl` [Example 7-75, 2-chloro-N,N-dimethyl-6-{4-[(1-{(2R)-3,3,3-trifluoro-2-hydroxy-2-[3-(trifluoromethoxy)phenyl]propanoyl}piperidin-4-yl)methyl]piperidin-1-yl}pyridine-3-carboxamide], for which, in assay [1], the Emax came out at 13% and the “LXR alpha IP (nM)” value is “NO IP”. Besides, in assay [2], the Emax stood at 67% and the EC50 was determined as 10 nM.
Regarding `CC(C)Oc1cccc(C(O)(C(=O)N2CCC(CC3CCN(c4ccc(C(=O)N(C)C)c(Cl)n4)CC3)CC2)C(F)(F)F)c1` (stereo not shown) [Example 7-76, 2-chloro-N,N-dimethyl-6-{4-[(1-{3,3,3-trifluoro-2-hydroxy-2-[3-(1-methylethoxy)phenyl]propanoyl}piperidin-4-yl)methyl]piperidin-1-yl}pyridine-3-carboxamide], in assay [1], the Emax is 10% and the “LXR alpha IP (nM)” value is “NO IP”. Moreover, in assay [2], the Emax is 56% and the EC50 was 10 nM.
For `CCOc1cccc(C(O)(C(=O)N2CCC(CC3CCN(c4ccc(C(=O)N(C)C)c(Cl)n4)CC3)CC2)C(F)(F)F)c1` (stereo not shown) [Example 7-77, 2-chloro-6-[4-({1-[2-(3-ethoxyphenyl)-3,3,3-trifluoro-2-hydroxypropanoyl]piperidin-4-yl}methyl)piperidin-1-yl]-N,N-dimethylpyridine-3-carboxamide], in that order: 6%, “NO IP”, 53% and 10 nM.
Regarding `CN(C)C(=O)c1ccc(N2CCC(CC3CCN(C(=O)C(O)(c4cccc(C#N)c4)C(F)(F)F)CC3)CC2)nc1Cl` (stereo not shown) [Example 7-78, 2-chloro-6-[4-({1-[2-(3-cyanophenyl)-3,3,3-trifluoro-2-hydroxypropanoyl]piperidin-4-yl}methyl)piperidin-1-yl]-N,N-dimethylpyridine-3-carboxamide], in assay [1], the Emax is 31% and the EC50 is 298 nM. Besides, in assay [2], the Emax was 95% and the EC50 was 6 nM.
With `COc1cccc([C@@](O)(C(=O)N2CCC(CC3CCN(c4ccc(C(=O)N(C)C)c(Cl)n4)CC3)CC2)C(F)(F)C(F)(F)F)c1` [Example 7-79, 2-chloro-N,N-dimethyl-6-[4-({1-[(2R)-3,3,4,4,4-pentafluoro-2-hydroxy-2-(3-methoxyphenyl)butanoyl]piperidin-4-yl}methyl)piperidin-1-yl]pyridine-3-carboxamide], in assay [1], the Emax is 22% and the EC50 amounted to 429 nM. Moreover, in assay [2], the Emax came out at 86% and the EC50 came out at 9 nM.
For `CN(C)C(=O)c1ccc(N2CCC(CC3CCN(C(=O)[C@](O)(c4ccccc4F)C(F)(F)F)CC3)CC2)nc1Cl` [Example 7-80, 2-chloro-N,N-dimethyl-6-[4-({1-[(2R)-3,3,3-trifluoro-2-(2-fluorophenyl)-2-hydroxypropanoyl]piperidin-4-yl}methyl)piperidin-1-yl]pyridine-3-carboxamide], in that order: 27%, 425 nM, 85% and 12 nM.
As to `CN(C)C(=O)c1ccc(N2CCC(CC3CCN(C(=O)C(F)(F)c4cccc(Cl)c4)CC3)CC2)nc1Cl` [Example 7-81, 2-chloro-6-[4-({1-[(3-chlorophenyl) (difluoro)acetyl]piperidin-4-yl}methyl)piperidin-1-yl]-N,N-dimethylpyridine-3-carboxamide], in assay [1], the Emax was determined as 19% and the “LXR alpha IP (nM)” value is reported as “NO IP”. In assay [2], the Emax stood at 51% and the EC50 amounted to 206 nM.
In the case of `CN(C)C(=O)c1ccc(N2CCC(CC3CCN(C(=O)C(O)(c4cc(F)cc(F)c4)C(F)(F)F)CC3)CC2)nc1Cl` (stereo not shown) [Example 7-82, 2-chloro-6-[4-({1-[2-(3,5-difluorophenyl)-3,3,3-trifluoro-2-hydroxypropanoyl]piperidin-4-yl}methyl)piperidin-1-yl]-N,N-dimethylpyridine-3-carboxamide], the Emax was 53% in assay [1] and 111% in assay [2]. For the same compound, the EC50 in assay [1] was determined as 106 nM; in assay [2], 7 nM.
With `CN(C)C(=O)c1ccc(N2CCC(CC3CCN(C(=O)C(O)(c4cc(Cl)cc(Cl)c4)C(F)(F)F)CC3)CC2)nc1Cl` (stereo not shown) [Example 7-83, 2-chloro-6-[4-({1-[2-(3,5-dichlorophenyl)-3,3,3-trifluoro-2-hydroxypropanoyl]piperidin-4-yl}methyl)piperidin-1-yl]-N,N-dimethylpyridine-3-carboxamide], in assay [1], the Emax was 13% and the “LXR alpha IP (nM)” value is “NO IP”. Further, in assay [2], the Emax is 53% and the EC50 came out at 8 nM.
`CC(C)c1cccc(C(O)(C(=O)N2CCC(CC3CCN(c4ccc(C(=O)N(C)C)c(Cl)n4)CC3)CC2)C(F)(F)F)c1` (stereo not shown) [Example 7-84, 2-chloro-N,N-dimethyl-6-{4-[(1-{3,3,3-trifluoro-2-hydroxy-2-[3-(1-methylethyl)phenyl]propanoyl}piperidin-4-yl)methyl]piperidin-1-yl}pyridine-3-carboxamide]: in assay [1], the Emax came to 11% and the “LXR alpha IP (nM)” value was “NO IP”. In assay [2], the Emax is 54% and the EC50 is 13 nM.
For `CN(C)C(=O)c1ccc(N2CCC(CC3CCN(C(=O)C(F)(F)c4ccc(F)cc4)CC3)CC2)nc1Cl` [Example 7-85, 2-chloro-6-[4-({1-[difluoro(4-fluorophenyl)acetyl]piperidin-4-yl}methyl)piperidin-1-yl]-N,N-dimethylpyridine-3-carboxamide], in that order: 7%, “NO IP”, 29% and 236 nM.
For `CN(C)C(=O)c1ccc(N2CCC(CC3CCN(C(=O)C(F)(F)c4ccccc4)CC3)CC2)nc1Cl` [Example 7-86, 2-chloro-6-[4-({1-[difluoro(phenyl)acetyl]piperidin-4-yl}methyl)piperidin-1-yl]-N,N-dimethylpyridine-3-carboxamide], in that order: 32%, “NO IP”, 75% and 165 nM.
In the case of `CN(C)C(=O)c1ccc(N2CCC(CC3CCN(C(=O)[C@](O)(c4cccc(C(F)(F)F)c4)C(F)(F)F)CC3)CC2)nc1Cl` [Example 7-87, 2-chloro-N,N-dimethyl-6-{4-[(1-{(2R)-3,3,3-trifluoro-2-hydroxy-2-[3-(trifluoromethyl)phenyl]propanoyl}piperidin-4-yl)methyl]piperidin-1-yl}pyridine-3-carboxamide], in assay [1], the Emax came to 23% and the EC50 came out at 252 nM. Further, in assay [2], the Emax was determined as 69% and the EC50 was 7 nM.
For the compound `Cc1cccc([C@@](O)(C(=O)N2CCC(CC3CCN(c4ccc(C(=O)N(C)C)c(Cl)n4)CC3)CC2)C(F)(F)F)c1` [Example 7-88, 2-chloro-N,N-dimethyl-6-[4-({1-[(2R)-3,3,3-trifluoro-2-hydroxy-2-(3-methylphenyl)propanoyl]piperidin-4-yl}methyl)piperidin-1-yl]pyridine-3-carboxamide], in assay [1], the Emax was 15% and the “LXR alpha IP (nM)” value is listed as “NO IP”. Moreover, in assay [2], the Emax is 52% and the EC50 was found to be 4 nM.
For the compound `COc1cc(F)cc(C(O)(C(=O)N2CCC(CC3CCN(c4ccc(C(=O)N(C)C)c(Cl)n4)CC3)CC2)C(F)(F)F)c1` (stereo not shown) [Example 7-89, 2-chloro-N,N-dimethyl-6-[4-({1-[3,3,3-trifluoro-2-(3-fluoro-5-methoxyphenyl)-2-hydroxypropanoyl]piperidin-4-yl}methyl)piperidin-1-yl]pyridine-3-carboxamide], the Emax in assay [1] amounted to 19%; in assay [2], 86%. Besides, the figures for the EC50 in assay [1] and in assay [2] were 112 nM and 6 nM, respectively.
As to `CCc1cccc(C(O)(C(=O)N2CCC(CC3CCN(c4ccc(C(=O)N(C)C)c(Cl)n4)CC3)CC2)C(F)(F)F)c1` (stereo not shown) [Example 7-90, 2-chloro-6-[4-({1-[2-(3-ethylphenyl)-3,3,3-trifluoro-2-hydroxypropanoyl]piperidin-4-yl}methyl)piperidin-1-yl]-N,N-dimethylpyridine-3-carboxamide], in assay [1], the Emax was found to be 10% and the “LXR alpha IP (nM)” value is on record as “NO IP”. In assay [2], the Emax was determined as 41% and the EC50 was 6 nM.
